Experimental data taken from article PMC8305652, “Copper(II) Complexes Containing Natural Flavonoid Pomiferin Show Considerable In Vitro Cytotoxicity and Anti-inflammatory Effects” (International Journal of Molecular Sciences, 2021).

Assays:
[1] = system: osteosarcoma (HOS); experiment: in vitro cytotoxicity, MTT assay; assay type: cell-based, human; conditions: mean ± SD, at least three independent experiments
[2] = system: A2780 cells; experiment: Annexin V/propidium iodide cell death assay, flow cytometry; assay type: cell-based, human; conditions: A2780, 15 µM, 24 h; mean of three experiments
Description: Both methods were performed according to the manufacturers’ protocols with 1 modification in the caspase induction assay, which was the use of the CellEvent^TM Caspase-3/7 Green Detection Reagent only for detection of Caspase-3/7 activation. […] After 24 h, the cells were washed once with PBS (0.1 M, pH 7.4), detached with trypsin (0.25% in ethylenediaminetetraacetic acid (EDTA), Sigma-Aldrich), resuspended in 500 µL of the culture medium and divided into 2 separate tubes, the first for apoptosis assay and the second one for caspase activation analysis. After staining with appropriate dyes, samples were analyzed on a BD FACSVerse flow cytometer (Becton Dickinson, Franklin Lakes, NJ, USA) in 3 separate experiments, while at least 10^4 events were recorded for each sample prepared in duplicate.

[3] = system: A2780 cells; experiment: cell cycle analysis by flow cytometry; assay type: cell-based, human; conditions: A2780, 15 µM, 24 h; untreated control 21.4 ± 0.8%
Description: Human ovarian cancer cell line A2780 (Sigma, Darmstadt, Germany) were used for this study. Cells were cultivated at 37 °C under a 5% CO2 atmosphere in an RPMI 1640 medium (Sigma Aldrich, Darmstadt, Germany) supplemented with (the final concentrations in medium): L-glutamine (2 mM), fetal bovine serum (FBS, 10%) and PenStrep (5 U penicillin, 50 µg streptomycin/mL).
After 24 h, the cells were washed once with PBS (0.1 M, pH 7.4) and cell cycle analysis was performed according to the protocol of BD Cycletest^TM Plus DNA kit (Becton Dickinson, Franklin Lakes, NJ, USA). Measurements were performed using BD FACSVerse flow cytometer (Becton Dickinson, Franklin Lakes, NJ, USA) in 3 independent experiments, each done in duplicate, while at least 5 × 10^3 events were recorded for each sample.

[4] = system: caspase 3 (Casp-3) in THP-1 cells; experiment: Western blotting of apoptosis-related proteins; assay type: cell-based, human; conditions: THP-1, complexes 4 µM, 24 h, Western blot; for proteolytically activated Casp-3 (verified by cleaved PARP-1): cisplatin 10 µM
Description: In addition to the above-mentioned methods, the Western blotting method was used to shed light on the mechanisms associated with caspase 3 activation in the THP-1 cells. Two and a half milliliters of floating THP-1 monocytes resuspended in a serum-free RPMI 1640 medium were seeded into 6-well plates at the concentration of 10^6 cells/mL. Two hours later, complexes 3 and 5 were added at the concentration level of 4 µM. After 24 h incubation, the cells were collected by centrifugation (3000 g/5 min/4 °C), washed by cold PBS and resuspended in an ice-cold lysis buffer (50 mM Tris-HCl pH 7.5, 1 mM EGTA, 1 mM EDTA, 1 mM sodium orthovanadate, 50 mM sodium fluoride, 5 mM sodium pyrophosphate, 270 mM sucrose) with Roche cOmplete protease inhibitors (Roche Diagnostics, Basel, Switzerland). The cell lysates were centrifuged at 3000 g/5 min/4 °C and supernatants were mixed with a 5x Laemmli buffer [containing 250 mM Tris-HCl pH 6.8, 10% (w/v) SDS, 30% (v/v) glycerol, 5% (v/v) β-mercaptoethanol, 0.04% (w/v) bromphenol blue] and incubated at 70 °C for 5 min. […] The membranes were incubated at 4 °C for 16 h with a primary anti-cleaved caspase 3 (p17) antibody at the dilution 1:1000 (Cell Signaling, Danvers, MA, USA; products No. 9664), and an Apoptosis WB Cocktail (Abcam, Cambridge, UK; product No. ab136812) at the dilution recommended by the provider to detect β-actin, cleaved poly-(ADP-ribose) polymerase (PARP) and pro-caspase 3. After washing in a TBST buffer, the secondary anti-rabbit IgG antibody (Sigma-Aldrich, product No. A0545) was diluted 1:2500 and applied to the membranes, which were then incubated for 1 h at the laboratory temperature (~22 °C). The amount of bound secondary antibody was determined using an ECL reagent (Bio-Rad, Hercules, CA, USA). Chemiluminescence was detected using a Syngene PXi4 chemiluminescence imaging system (Cambridge, UK).

[5] = system: Ea.Hy 926 endothelial hybrid cells; set-up: method as in PMID 27936296; conditions: read-out: IC50 Ea.Hy 926 healthy endothelial hybrid cells; cited from earlier work
[6] = system: primary culture of human hepatocytes (Hep); experiment: toxicity against primary culture of human hepatocytes; assay type: cell-based; conditions: tested range 0.1–100 μM
[7] = system: 518A2, Panc-1, MCF-7/Topo, KB-V1/Vbl, DLD-1, U-87 MG cancer cell lines; set-up: method as in PMID 27936296; conditions: range over cell lines; read-out: IC50 values on the mentioned cancer cell lines; cited from earlier work
[8] = system: cisplatin-resistant ovarian carcinoma (A2780R); experiment: in vitro cytotoxicity, MTT assay; assay type: cell-based, human; conditions: mean ± SD, at least three independent experiments
Description: (§1) The testing was performed on the following human cancer cell lines: breast adenocarcinoma (MCF-7), osteosarcoma (HOS), lung adenocarcinoma (A549), prostate adenocarcinoma (PC-3), ovarian carcinoma (A2780), cisplatin-resistant ovarian carcinoma (A2780R) and colorectal adenocarcinoma (Caco-2) obtained from ATCC collection of cell lines and cultivated according to producer’s instructions.

[9] = system: breast adenocarcinoma (MCF-7); experiment: in vitro cytotoxicity, MTT assay; assay type: cell-based, human; conditions: mean ± SD, at least three independent experiments
Description: as §1

[10] = system: lung adenocarcinoma (A549); experiment: in vitro cytotoxicity, MTT assay; assay type: cell-based, human; conditions: mean ± SD, at least three independent experiments
Description: as §1

[11] = system: ovarian carcinoma (A2780); experiment: in vitro cytotoxicity, MTT assay; assay type: cell-based, human; conditions: mean ± SD, at least three independent experiments
Description: as §1

[12] = system: prostate adenocarcinoma (PC-3); experiment: in vitro cytotoxicity, MTT assay; assay type: cell-based, human; conditions: mean ± SD, at least three independent experiments
Description: as §1

[13] = system: A2780 cell line; set-up: method as in PMID 32578983; conditions: 24 h incubation; cited from earlier work
[14] = system: DLD-1 colon carcinoma; set-up: method as in PMID 27936296; conditions: 72 h incubation; cited from earlier work
[15] = system: MCF-7/Topo breast adenocarcinoma cells; set-up: method as in PMID 27936296; conditions: 72 h incubation; cited from earlier work
[16] = system: KB-V1/Vbl cervix carcinoma cells; set-up: method as in PMID 27936296; conditions: 72 h incubation; cited from earlier work
[17] = system: Panc-1 pancreas carcinoma cells; set-up: method as in PMID 27936296; conditions: 72 h incubation; cited from earlier work
[18] = system: U-87 MG glioblastoma; set-up: method as in PMID 27936296; conditions: 72 h incubation; cited from earlier work
[19] = system: 518A2 melanoma cells; set-up: method as in PMID 23973682; conditions: 72 h incubation; cited from earlier work
[20] = system: THP-1 cells; experiment: intracellular production of reactive oxygen species, DCFH2-DA; assay type: cell-based, human; conditions: THP-1, 200 nM, 23.5 h; pyocyanin 100 μM as radical-forming control
Description: THP-1 cells were used for the determination of the potential of tested compounds to initiate the intracellular ROS production, as was described previously with some minor modifications. Cells in serum-free RPMI 1640 medium without phenol red were seeded into black 96-well plates (5 × 10^4 cells/100 µL/well). After 2 h of incubation, the cells were treated with copper(II) complexes 1–5 at a concentration of 200 nM, and pyocyanin at a final concentration of 100 μM was added into control group to trigger production of reactive oxygen species (ROS), respectively. After the incubation at 37 °C for either 1.5 h or 23.5 h, dichlorofluorescin diacetate (DCFH2-DA) (5 μg/mL) was added and cells were kept under the same conditions hereafter. Thirty minutes later, fluorometric measurement of the fluorescent product DCF was conducted using a Tecan Infinite F200 microplate reader (Tecan, Männedorf, Switzerland) with λ(ex./em.) = 485/520 nm.

[21] = system: NF-κB/AP-1 in THP-1-XBlue-MD2-CD14 cells; experiment: LPS-stimulated NF-κB/AP-1 activity, SEAP reporter; assay type: cell-based, human; conditions: complexes applied at 200 nM and 50 nM, 1 h pre-treatment, read 24 h after LPS
Description: The activity of transcription factors NF-κB/AP-1 was evaluated using the THP-1-XBlue^TM-MD2-CD14 cell line [obtained from Invivogen (San Diego, CA, USA)], expressing an NF-κB/AP-1-inducible secreted embryonic alkaline phosphatase (SEAP) reporter gene, as was described previously. The complexes 1–5 were applied to the cells at the concentrations of 200 nM and 50 nM, pomiferin (at 200 nM), and a reference drug prednisone at 1 μM, respectively. Lipopolysaccharide (LPS) from E. coli 0111:B4 (Sigma-Aldrich) dissolved in PBS was used to trigger an inflammation-like reaction. The activity of the SEAP was determined by Quanti-Blue^TM reagent (Invivogen, San Diego, CA, USA) according to the manufacturer’s instructions 24 h after lipopolysaccharide stimulation. The activity of NF-κB/AP-1 was determined spectrophotometrically using the FLUOstar Omega microplate reader (BMG Labtech, Ortenberg, Germany) at 655 nm and compared with that of the vehicle.

[22] = system: pUC19 plasmid DNA; experiment: nuclease-like activity, plasmid DNA cleavage; assay type: biochemical
[23] = system: colorectal adenocarcinoma (Caco-2); experiment: in vitro cytotoxicity, MTT assay; assay type: cell-based, human; conditions: mean ± SD, at least three independent experiments
[24] = system: THP-1 human monocytic leukemia cell line; experiment: relative cell viability, WST-1; assay type: cell-based; conditions: serum-free medium, 24 h, six independent experiments
Description: The THP-1 human monocytic leukemia cell line was purchased from the European Collection of Cell Cultures (ECACC, Salisbury, UK). Cells were cultured in an RPMI 1640 medium containing stabilized 2 mM L-glutamine (Biosera, Nuaille, France) supplemented with the mixture of antibiotics [100 U/mL penicillin and […] (Biosera, Nuaille, France)], and 10% foetal bovine serum (FBS) (HyClone, Marlborough, MA, USA). The cells were kept in an incubator at 37 °C in an atmosphere of air containing 5% CO2 and 100% humidity.
The relative cell viability of floating monocytes THP-1 were determined after 24 h incubation in a serum-free medium with compounds 1–5 dissolved in N,N-dimethylformamide (DMF) at increasing concentrations (20–0.125 µM) by the cell proliferation reagent WST-1 (Roche, Basel, Switzerland) according to the manufacturer’s manual, as we described previously. The IC50 values were calculated from resultant viability curves by four-parameter logistic (4PL) analysis.

| Structure (SMILES) | IC50 [1] [µM] | proteolytically activated Casp-3 (verified by cleaved PARP-1) [4] | IC50 [5] [µM] | IC50 [6] [µM] | IC50 [8] [µM] | IC50 [9] [µM] | IC50 [10] [µM] | IC50 [11] [µM] | IC50 [12] [µM] | IC50 [13] [µM] | ROS production, long term [20] | inhibition of LPS-stimulated NF-κB/AP-1 activation [21] | IC50 [23] [µM] | IC50 [24] [µM] | also measured |
| --- | --- | --- | --- | --- | --- | --- | --- | --- | --- | --- | --- | --- | --- | --- | --- |
| N.N.[Cl][Pt][Cl] [cisplatin, reference compound] | 30 ± 5.9 | detected | 17.3 ± 1.9 | > 80 | > 80 | 30.8 ± 1.8 | > 80 | 26.3 ± 2.1 | > 80 | – | – | – | – | – | Annexin V +/PI + cells (late apoptotic/secondary necrotic) [2]: 23.7 ± 2.0%; Annexin V +/PI − cells (early apoptotic) [2]: 41.5 ± 0.8%; cells in the S phase of the cell cycle [3]: 51.4 ± 2.2%; IC50 [7]: 4 to 32.6 µM |
| c1cnc2c(c1)ccc1cccnc12 [phen, 1,10-phenanthroline] | – | – | – | – | – | – | – | – | – | > 100 | – | – | – | – | – |
| c1ccc(-c2ccccn2)nc1 [bipy, 2,2′-bipyridine] | – | – | – | – | – | – | – | – | – | > 100 | – | – | – | – | – |
| O=c1c(-c2ccc(O)cc2)coc2cc(O)cc([O-])c12.O=c1c(-c2ccc(O)cc2)coc2cc(O)cc([O-])c12.[Cu+2] [[Cu(L)2], bis[3-(4-hydroxyphenyl)-7-hydroxy-4H-benzopyran-4-one-5-olato-κO^2] copper(II)] | – | – | 20.1 ± 0.7 | – | – | – | – | – | – | – | – | – | – | – | IC50 [14]: 21.2 ± 1.8 µM; IC50 [15]: 15 ± 1.5 µM; IC50 [16]: 8 ± 0.2 µM; IC50 [17]: 16.9 ± 0.8 µM; IC50 [18]: 30.2 ± 5 µM; IC50 [19]: 10.9 ± 1.4 µM |
| CC(C)=CCc1c2c(c3occ(-c4ccc(O)c(O)c4)c(=O)c3c1[O-])C=CC(C)(C)O2.CO.CO.O=[N+]([O-])[O-].[Cu+2].c1ccc(-c2ccccn2)nc1 [Complex 1, (3-(3,4-dihydroxyphenyl)-8,8-dimethyl-6-(3-methylbut-2-en-1-yl)-4H,8H-benzo[1,2-b:3,4-b′]dipyran-4-one-5-olato-κ^2O4:O5)(2,2′-bipyridine–κ^2N:N)copper(II) nitrate methanol disolvate] | 21.5 ± 1.4 | – | – | > 100 | 5.6 ± 0.3 | 23.8 ± 0.2 | 20.8 ± 1.5 | 12.1 ± 1.5 | 22.1 ± 1.9 | – | elevated the ROS levels similarly as pyocyanin | able to inhibit | 13.7 ± 7.4 | 4 ± 1.1 | plasmid DNA nicked to OC-form ([22]; 10 µM, water-containing medium (10% DMF), 37 °C, 1 h): ca. 30%; DNA cleavage in the presence of ROS scavengers (KI, NaN3, DMSO) ([22]; 0.66 mM H2O2, scavengers equimolar to complex): decreased by DMSO |
| CC(C)=CCc1c2c(c3occ(-c4ccc(O)c(O)c4)c(=O)c3c1[O-])C=CC(C)(C)O2.CO.CO.O=[N+]([O-])[O-].[Cu+2].c1cnc2c(c1)ccc1cccnc12 [Complex 3, (3-(3,4-dihydroxyphenyl)-8,8-dimethyl-6-(3-methylbut-2-en-1-yl)-4H,8H-benzo[1,2-b:3,4-b′]dipyran-4-one-5-olato-κ^2O4:O5)(1,10-phenanthroline–κ^2N:N)copper(II) nitrate methanol disolvate] | 3.5 ± 0.1 | detected | – | > 100 | 2.9 ± 1.2 | 5.9 ± 0.6 | 3.5 ± 0.2 | 5.8 ± 2.2 | 13 ± 1.4 | – | highest pro-oxidant potential of all the complexes | no influence on the activity | 4.2 ± 1.9 | > 10 | levels of pro-caspase 3 (pro-Casp-3) [4]: dramatically decreased |
